Assay results published in ChEMBL document CHEMBL3885881, “DrugMatrix”.

Organism: Rattus norvegicus
Assay: DrugMatrix - Regimen: Daily Repeat
Format: toxicity, organism-based, Sprague-Dawley
Design: regimen Daily Repeat, gender Male, age 6-8 weeks
Conditions: in vivo, po, route oral GAVAGE, vehicle .5 % CMC; for BASOPHIL / EOSINOPHIL / ERYTHROCYTE COUNT / HEMATOCRIT / HEMOGLOBIN / LEUKOCYTE COUNT / LYMPHOCYTE / MEAN CORPUSCULAR HEMOGLOBIN / MEAN CORPUSCULAR HEMOGLOBIN CONCENTRATION / MEAN CORPUSCULAR VOLUME / MONOCYTE / NEUTROPHIL / PLATELET COUNT: tissue Blood; for ALANINE AMINOTRANSFERASE / ALBUMIN / ALKALINE PHOSPHATASE / ASPARTATE AMINOTRANSFERASE / BLOOD UREA NITROGEN / CHLORIDE / CHOLESTEROL / CREATINE PHOSPHOKINASE / CREATININE / GLUCOSE / PHOSPHORUS / POTASSIUM / SODIUM / TOTAL BILIRUBIN / TOTAL PROTEIN: tissue Plasma
[1] = 69 mg/kg, 72 h, dose level High, time 3 day
[2] = 69 mg/kg, 120 h, dose level High, time 5 day
[3] = […], 72 h, dose 6.9 mg/Kg, dose level Low, time 3 day
[4] = […], 120 h, dose 6.9 mg/Kg, dose level Low, time 5 day

## COc1ccc(Cc2nccc3cc(OC)c(OC)cc23)cc1OC [PAPAVERINE]
[1]
  BASOPHIL: 0%
  EOSINOPHIL: 0.33%
  ERYTHROCYTE COUNT: 6.13 x10E6/uL
  HEMATOCRIT: 36.97%
  HEMOGLOBIN: 14.43 G/DL
  LEUKOCYTE COUNT: 10.73 x10E3/uL
  LYMPHOCYTE: 85%
  MEAN CORPUSCULAR HEMOGLOBIN: 23.67 pg
  MEAN CORPUSCULAR HEMOGLOBIN CONCENTRATION: 39.07 G/DL
  MEAN CORPUSCULAR VOLUME: 60.5 fL
  MONOCYTE: 1%
  NEUTROPHIL: 13.67%
  PLATELET COUNT: 1169 x10E3/uL
  ALANINE AMINOTRANSFERASE: 36.33 u/L
  ALBUMIN: 3.83 G/DL
  ALKALINE PHOSPHATASE: 289.67 u/L
  ASPARTATE AMINOTRANSFERASE: 57.33 u/L
  BLOOD UREA NITROGEN: 13.67 mg/dL
  CHLORIDE: 107.67 MEQ/L
  CHOLESTEROL: 66.33 mg/dL
  CREATINE PHOSPHOKINASE: 129.67 u/L
  CREATININE: 0.5 mg/dL
  GLUCOSE: 195.67 mg/dL
  PHOSPHORUS: 11.97 mg/dL
  POTASSIUM: 6.9 MEQ/L
  SODIUM: 152.33 MEQ/L
  TOTAL BILIRUBIN: 0.3 mg/dL
  TOTAL PROTEIN: 6.13 G/DL
[2]
  BASOPHIL: 0%
  EOSINOPHIL: 0%
  ERYTHROCYTE COUNT: 5.8 x10E6/uL
  HEMATOCRIT: 35.07%
  HEMOGLOBIN: 14.43 G/DL
  LEUKOCYTE COUNT: 15.23 x10E3/uL
  LYMPHOCYTE: 84.33%
  MEAN CORPUSCULAR HEMOGLOBIN: 24.97 pg
  MEAN CORPUSCULAR HEMOGLOBIN CONCENTRATION: 41.27 G/DL
  MEAN CORPUSCULAR VOLUME: 60.43 fL
  MONOCYTE: 3.67%
  NEUTROPHIL: 12%
  PLATELET COUNT: 973 x10E3/uL
  ALANINE AMINOTRANSFERASE: 34 u/L
  ALBUMIN: 3.67 G/DL
  ALKALINE PHOSPHATASE: 334 u/L
  ASPARTATE AMINOTRANSFERASE: 56.33 u/L
  BLOOD UREA NITROGEN: 12.33 mg/dL
  CHLORIDE: 105.33 MEQ/L
  CHOLESTEROL: 57.67 mg/dL
  CREATINE PHOSPHOKINASE: 142.67 u/L
  CREATININE: 0.57 mg/dL
  GLUCOSE: 174.33 mg/dL
  PHOSPHORUS: 11.33 mg/dL
  POTASSIUM: 7 MEQ/L
  SODIUM: 149.67 MEQ/L
  TOTAL BILIRUBIN: 0.43 mg/dL
  TOTAL PROTEIN: 5.8 G/DL
[3]
  BASOPHIL: 0%
  EOSINOPHIL: 0.33%
  ERYTHROCYTE COUNT: 5.94 x10E6/uL
  HEMATOCRIT: 35.17%
  HEMOGLOBIN: 14.13 G/DL
  LEUKOCYTE COUNT: 12.43 x10E3/uL
  LYMPHOCYTE: 87.33%
  MEAN CORPUSCULAR HEMOGLOBIN: 23.8 pg
  MEAN CORPUSCULAR HEMOGLOBIN CONCENTRATION: 40.2 G/DL
  MEAN CORPUSCULAR VOLUME: 59.13 fL
  MONOCYTE: 2.33%
  NEUTROPHIL: 10%
  PLATELET COUNT: 1083 x10E3/uL
  ALANINE AMINOTRANSFERASE: 43.67 u/L
  ALBUMIN: 3.7 G/DL
  ALKALINE PHOSPHATASE: 347.67 u/L
  ASPARTATE AMINOTRANSFERASE: 64.67 u/L
  BLOOD UREA NITROGEN: 11.67 mg/dL
  CHLORIDE: 107 MEQ/L
  CHOLESTEROL: 64.33 mg/dL
  CREATINE PHOSPHOKINASE: 170 u/L
  CREATININE: 0.5 mg/dL
  GLUCOSE: 172 mg/dL
  PHOSPHORUS: 11.1 mg/dL
  POTASSIUM: 6.23 MEQ/L
  SODIUM: 149 MEQ/L
  TOTAL BILIRUBIN: 0.37 mg/dL
  TOTAL PROTEIN: 5.77 G/DL
[4]
  BASOPHIL: 0%
  EOSINOPHIL: 0.33%
  ERYTHROCYTE COUNT: 6.2 x10E6/uL
  HEMATOCRIT: 37.4%
  HEMOGLOBIN: 15.4 G/DL
  LEUKOCYTE COUNT: 12.83 x10E3/uL
  LYMPHOCYTE: 87.33%
  MEAN CORPUSCULAR HEMOGLOBIN: 24.87 pg
  MEAN CORPUSCULAR HEMOGLOBIN CONCENTRATION: 41.17 G/DL
  MEAN CORPUSCULAR VOLUME: 60.33 fL
  MONOCYTE: 1.33%
  NEUTROPHIL: 11%
  PLATELET COUNT: 1006 x10E3/uL
  ALANINE AMINOTRANSFERASE: 35 u/L
  ALBUMIN: 3.73 G/DL
  ALKALINE PHOSPHATASE: 374.33 u/L
  ASPARTATE AMINOTRANSFERASE: 60.33 u/L
  BLOOD UREA NITROGEN: 12.33 mg/dL
  CHLORIDE: 108.33 MEQ/L
  CHOLESTEROL: 61.33 mg/dL
  CREATINE PHOSPHOKINASE: 131.67 u/L
  CREATININE: 0.6 mg/dL
  GLUCOSE: 168.67 mg/dL
  PHOSPHORUS: 10.03 mg/dL
  POTASSIUM: 6.13 MEQ/L
  SODIUM: 153.67 MEQ/L
  TOTAL BILIRUBIN: 0.33 mg/dL
  TOTAL PROTEIN: 5.97 G/DL
